What was measured:
Type in all cases: biochemical
human alpha-thrombin = human alpha-thrombin (Homo sapiens (Human), UniProt P00734); assay: Inhibition of human Factor IIa; conditions: Pefachrome tPA substrate; read-out: h FIIa Ki
Description: (§1) The inhibitory effect for the individual enzymes was determined in analogy to a previously disclosed method (Stürzebecher et al., J. Med. Chem., 40, 3091-3099 (1997)).
(§2) 200 μl of TBS (0.05 M trishydroxymethylaminomethane; 0.154 M NaCl, 2% ethanol, pH 8.0)
(§3) 2 μL of a test compound solution in 50% v/v DMSO/water
(§4) For zero order kinetics, the reaction was stopped after 20 min by adding 15 μl of acetic acid (80% v/v), and the absorption at 405 nm was determined using a Microplate Reader (Multiscan Ascent™, from Thermo). In the case of pseudo-first order kinetics, the reaction rates in the equilibrium state were determined by continuously recording the change in absorbance at 405 nm. The Ki values were calculated by parameter fitting in accordance with the rate equation for competitive inhibition using the GraFit software, version 4. The Ki values are the average of at least three determinations.

plasma kallikrein = plasma kallikrein (Homo sapiens (Human), UniProt P03952); assay: Determination of inhibition constants for human plasma kallikrein (chromogenic substrate); conditions: 25° C., S2302 substrate; read-out: h PK Ki
Description: (§5) Determination of the Inhibition Constants for Human Plasmin (h Plasmin) and Human Plasma Kallikrein (h PK)
as §1, §2
(§6) 25 μl of substrate (4 mM, 2 mM and 1 mM tosyl-Gly-Pro-Lys-pNA=Chromozym PL from LOXO for plasmin and 3 mM, 1.5 mM and 1 mM H-D-Pro-Phe-Arg-pNA=S2302 from Chromogenix for PK, dissolved in H2O)
as §3
(§7) 50 μl of enzyme solution (plasmin from Calbiochem: 1.7 mU/ml in 0.154 M NaCl+0.1% BSA m/v; plasma kallikrein from Enzyme Research Lab.: 62 ng/ml in 0.154 M NaCl+0.1% BSA m/v)
as §4

[1] = target: human activated protein C (Homo sapiens (Human), UniProt P04070); assay: Inhibition of human activated protein C; conditions: Pefachrome PCa substrate; read-out: h aPC Ki
Description: as §1, §2, §3, §4

[2] = target: human activated C1r complement component (Homo sapiens (Human), UniProt P00736); assay: Inhibition of human C1r; conditions: S2314 substrate; read-out: h C1r Ki
Description: as §1, §2, §3, §4

human Factor Xa = human Factor Xa (Homo sapiens (Human), UniProt P00742); assay: Inhibition of human Factor Xa; conditions: Pefachrome FXa substrate; read-out: h FXa Ki
Description: The inhibitory effect for the individual enzymes was determined in analogy to a previously disclosed method (Stürzebecher et al., J. Med. […] In the case of pseudo-first order kinetics, the reaction rates in the equilibrium state were determined by continuously recording the change in absorbance at 405 nm. […] The Ki values are the average of at least three determinations. Human Factor Xa (h FXa): […]

human urinary kallikrein = human urinary kallikrein (Homo sapiens (Human), UniProt P06870); assay: Inhibition of human urinary kallikrein; conditions: S-2266 substrate; read-out: h uKK Ki
Description: as §1, §2, §3, §4

[3] = target: human activated C1s complement component (Homo sapiens (Human), UniProt P09871); assay: Inhibition of human C1s; conditions: S2314 substrate; read-out: h C1s Ki
Description: as §1, §2, §3, §4
Subcomponent “s” of Human Complement Component 1 (h C1s): Inhibition of human C1s was determined by the method described in [0092]-[0098] using native human activated C1s complement component from Calbiochem at 29 nM and Val-Ser-Arg-pNA (S2314) at 8 mM, 6 mM, and 4 mM as substrate; results are reported as Ki values (nanomolar).

human Factor XIa = human Factor XIa (Homo sapiens (Human), UniProt P03951); assay: Inhibition of human Factor XIa; conditions: Pefachrome PCa substrate; read-out: h FXIa Ki
Description: as §1, §2, §3, §4

plasmin = plasmin (Homo sapiens (Human), UniProt P00747); assay: Determination of inhibition constants for human plasmin (chromogenic substrate); conditions: 25° C., Chromozym PL substrate; read-out: h plasmin Ki
Description: as §5, §1, §2, §6, §3, §7, §4

human alpha-FXIIa = human alpha-FXIIa (Homo sapiens (Human), UniProt P00748); assay: Inhibition of human alpha-Factor XIIa; conditions: CHA-Gly-Arg-pNA substrate; read-out: h FXIIa Ki
Description: as §1, §2, §3, §4

human t-PA = human t-PA (Homo sapiens (Human), UniProt P00750); assay: Inhibition of human tissue-type plasminogen activator; conditions: Pefachrome tPA substrate; read-out: h t-PA Ki
Description: as §1, §2, §3, §4

Chain of human t-PA (P00750 36-562): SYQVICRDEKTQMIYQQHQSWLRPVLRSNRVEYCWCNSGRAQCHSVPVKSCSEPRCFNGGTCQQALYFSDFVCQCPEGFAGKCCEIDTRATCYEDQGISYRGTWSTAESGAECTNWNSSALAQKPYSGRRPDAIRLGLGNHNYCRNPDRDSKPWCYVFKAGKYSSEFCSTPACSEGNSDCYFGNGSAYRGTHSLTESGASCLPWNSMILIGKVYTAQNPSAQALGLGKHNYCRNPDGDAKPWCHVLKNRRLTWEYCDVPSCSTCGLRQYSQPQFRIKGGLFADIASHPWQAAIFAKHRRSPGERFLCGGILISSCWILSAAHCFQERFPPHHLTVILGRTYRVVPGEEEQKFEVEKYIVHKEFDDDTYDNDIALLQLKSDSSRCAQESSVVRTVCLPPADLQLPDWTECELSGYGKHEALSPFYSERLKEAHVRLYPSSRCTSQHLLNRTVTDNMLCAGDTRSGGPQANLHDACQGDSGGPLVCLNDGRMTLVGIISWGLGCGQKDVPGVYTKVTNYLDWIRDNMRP
Chain of plasma kallikrein (P03952 391-638): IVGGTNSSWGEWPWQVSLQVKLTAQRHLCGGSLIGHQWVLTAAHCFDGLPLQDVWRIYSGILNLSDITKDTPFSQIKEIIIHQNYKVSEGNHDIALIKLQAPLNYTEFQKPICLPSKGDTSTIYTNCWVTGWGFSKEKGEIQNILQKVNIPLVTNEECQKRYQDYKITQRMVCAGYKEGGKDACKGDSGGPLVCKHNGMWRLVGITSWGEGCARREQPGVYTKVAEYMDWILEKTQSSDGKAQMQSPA
Chain of plasma kallikrein (P03952 20-390 partner): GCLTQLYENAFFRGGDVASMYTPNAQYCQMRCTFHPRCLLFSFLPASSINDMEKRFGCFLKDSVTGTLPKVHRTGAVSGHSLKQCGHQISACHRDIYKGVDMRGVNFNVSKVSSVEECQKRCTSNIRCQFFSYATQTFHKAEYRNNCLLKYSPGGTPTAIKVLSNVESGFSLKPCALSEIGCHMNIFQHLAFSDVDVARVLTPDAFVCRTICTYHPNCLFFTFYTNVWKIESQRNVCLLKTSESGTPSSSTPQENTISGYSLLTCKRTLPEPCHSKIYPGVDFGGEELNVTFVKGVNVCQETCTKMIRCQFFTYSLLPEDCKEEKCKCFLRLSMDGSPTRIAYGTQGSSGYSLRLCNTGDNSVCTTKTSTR
Chain of human activated C1s complement component (P09871 438-688): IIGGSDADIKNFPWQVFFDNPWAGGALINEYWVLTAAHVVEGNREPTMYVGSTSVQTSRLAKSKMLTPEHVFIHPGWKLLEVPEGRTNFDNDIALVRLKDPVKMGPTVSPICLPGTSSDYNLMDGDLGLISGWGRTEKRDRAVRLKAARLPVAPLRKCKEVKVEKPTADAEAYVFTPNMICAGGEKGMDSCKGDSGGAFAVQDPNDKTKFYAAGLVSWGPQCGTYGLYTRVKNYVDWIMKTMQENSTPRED
Chain of human activated C1s complement component (P09871 16-437 partner): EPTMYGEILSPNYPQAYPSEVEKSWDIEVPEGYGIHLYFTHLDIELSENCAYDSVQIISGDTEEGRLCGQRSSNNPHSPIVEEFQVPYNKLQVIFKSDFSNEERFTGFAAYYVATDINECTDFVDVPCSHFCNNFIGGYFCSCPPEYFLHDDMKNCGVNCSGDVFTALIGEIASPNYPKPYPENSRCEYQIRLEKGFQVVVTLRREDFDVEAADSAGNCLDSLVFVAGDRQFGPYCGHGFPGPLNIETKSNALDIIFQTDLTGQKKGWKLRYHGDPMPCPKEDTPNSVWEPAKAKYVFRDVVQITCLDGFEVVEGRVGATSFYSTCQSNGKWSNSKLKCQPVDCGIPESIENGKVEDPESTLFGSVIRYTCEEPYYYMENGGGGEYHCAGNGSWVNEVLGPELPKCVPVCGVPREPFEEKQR
Chain of human alpha-FXIIa (P00748 373-615): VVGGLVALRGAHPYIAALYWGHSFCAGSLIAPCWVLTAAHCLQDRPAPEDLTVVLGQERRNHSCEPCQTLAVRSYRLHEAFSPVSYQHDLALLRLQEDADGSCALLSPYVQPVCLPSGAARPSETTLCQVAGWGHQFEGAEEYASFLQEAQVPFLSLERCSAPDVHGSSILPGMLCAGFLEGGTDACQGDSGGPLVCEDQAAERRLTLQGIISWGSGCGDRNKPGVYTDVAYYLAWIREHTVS
Chain of human alpha-FXIIa (P00748 20-372 partner): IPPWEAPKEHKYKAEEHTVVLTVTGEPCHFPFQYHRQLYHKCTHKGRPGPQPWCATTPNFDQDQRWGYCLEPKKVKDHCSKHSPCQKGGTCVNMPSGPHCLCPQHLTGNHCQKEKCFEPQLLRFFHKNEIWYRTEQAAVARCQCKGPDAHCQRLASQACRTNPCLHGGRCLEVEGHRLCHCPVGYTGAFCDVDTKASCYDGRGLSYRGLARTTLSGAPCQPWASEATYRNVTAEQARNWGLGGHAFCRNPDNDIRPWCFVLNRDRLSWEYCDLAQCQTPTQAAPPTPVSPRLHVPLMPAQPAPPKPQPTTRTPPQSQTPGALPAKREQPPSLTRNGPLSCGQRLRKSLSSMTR
Chain of human urinary kallikrein (P06870 25-262): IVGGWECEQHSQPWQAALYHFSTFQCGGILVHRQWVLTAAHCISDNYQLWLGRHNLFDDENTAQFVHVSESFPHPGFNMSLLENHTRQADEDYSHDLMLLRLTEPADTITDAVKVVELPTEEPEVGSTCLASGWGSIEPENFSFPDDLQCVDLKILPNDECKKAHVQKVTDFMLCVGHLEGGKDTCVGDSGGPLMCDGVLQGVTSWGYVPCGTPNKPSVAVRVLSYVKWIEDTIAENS
Chain of human activated protein C (P04070 212-450): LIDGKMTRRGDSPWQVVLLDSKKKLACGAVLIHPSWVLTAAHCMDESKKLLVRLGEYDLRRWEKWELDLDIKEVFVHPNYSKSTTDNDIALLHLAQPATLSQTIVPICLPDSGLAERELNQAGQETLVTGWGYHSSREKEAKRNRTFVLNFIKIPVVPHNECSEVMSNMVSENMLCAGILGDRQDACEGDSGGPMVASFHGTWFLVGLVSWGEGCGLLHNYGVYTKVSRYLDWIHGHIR
Chain of human activated protein C (P04070 43-197 partner): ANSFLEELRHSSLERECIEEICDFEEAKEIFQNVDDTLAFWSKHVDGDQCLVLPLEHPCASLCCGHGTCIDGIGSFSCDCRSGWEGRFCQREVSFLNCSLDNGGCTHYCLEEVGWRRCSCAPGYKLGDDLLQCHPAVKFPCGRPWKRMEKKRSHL
Chain of human Factor XIa (P03951 388-625): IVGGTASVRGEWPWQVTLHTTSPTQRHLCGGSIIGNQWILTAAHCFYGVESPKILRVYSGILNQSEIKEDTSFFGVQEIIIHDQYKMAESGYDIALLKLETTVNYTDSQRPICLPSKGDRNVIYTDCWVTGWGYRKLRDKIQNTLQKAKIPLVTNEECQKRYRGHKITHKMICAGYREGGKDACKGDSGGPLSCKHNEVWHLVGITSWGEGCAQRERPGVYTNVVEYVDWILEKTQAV
Chain of human Factor XIa (P03951 19-387 partner): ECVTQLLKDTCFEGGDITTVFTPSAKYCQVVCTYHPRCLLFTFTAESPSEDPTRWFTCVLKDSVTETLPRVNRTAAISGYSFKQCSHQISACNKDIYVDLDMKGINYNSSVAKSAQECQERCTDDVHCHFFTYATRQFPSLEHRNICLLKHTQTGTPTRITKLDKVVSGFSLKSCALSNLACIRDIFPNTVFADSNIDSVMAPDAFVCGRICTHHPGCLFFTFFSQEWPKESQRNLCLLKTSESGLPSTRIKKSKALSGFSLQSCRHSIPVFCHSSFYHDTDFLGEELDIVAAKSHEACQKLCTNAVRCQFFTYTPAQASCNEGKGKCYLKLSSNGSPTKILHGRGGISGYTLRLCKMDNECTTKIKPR
Chain of plasmin (P00747 581-810): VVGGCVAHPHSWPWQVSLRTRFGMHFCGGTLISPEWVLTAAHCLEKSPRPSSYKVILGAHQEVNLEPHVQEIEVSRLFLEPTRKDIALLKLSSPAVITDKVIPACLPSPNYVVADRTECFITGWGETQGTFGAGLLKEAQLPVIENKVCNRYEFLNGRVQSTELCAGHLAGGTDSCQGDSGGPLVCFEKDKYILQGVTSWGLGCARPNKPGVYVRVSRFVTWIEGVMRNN
Chain of plasmin (P00747 97-580 partner): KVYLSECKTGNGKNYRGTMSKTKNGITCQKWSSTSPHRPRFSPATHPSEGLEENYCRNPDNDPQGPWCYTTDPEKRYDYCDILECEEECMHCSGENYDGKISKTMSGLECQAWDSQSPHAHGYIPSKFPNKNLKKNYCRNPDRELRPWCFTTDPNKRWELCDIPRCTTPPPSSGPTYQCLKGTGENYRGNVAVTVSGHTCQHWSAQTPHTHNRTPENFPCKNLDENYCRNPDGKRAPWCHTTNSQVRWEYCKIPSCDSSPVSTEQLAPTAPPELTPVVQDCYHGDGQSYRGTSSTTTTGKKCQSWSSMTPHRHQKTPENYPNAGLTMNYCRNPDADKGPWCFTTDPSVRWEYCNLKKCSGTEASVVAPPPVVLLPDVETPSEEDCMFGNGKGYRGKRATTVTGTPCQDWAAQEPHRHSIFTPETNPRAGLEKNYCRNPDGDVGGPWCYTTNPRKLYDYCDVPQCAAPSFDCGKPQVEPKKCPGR
Chain of human Factor Xa (P00742 235-488): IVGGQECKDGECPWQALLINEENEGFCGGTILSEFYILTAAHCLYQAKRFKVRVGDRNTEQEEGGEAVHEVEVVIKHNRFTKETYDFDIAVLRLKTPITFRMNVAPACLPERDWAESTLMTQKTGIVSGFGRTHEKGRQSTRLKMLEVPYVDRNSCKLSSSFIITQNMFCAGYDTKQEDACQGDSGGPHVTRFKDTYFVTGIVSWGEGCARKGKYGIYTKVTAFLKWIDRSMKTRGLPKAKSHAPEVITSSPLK
Chain of human Factor Xa (P00742 41-179 partner): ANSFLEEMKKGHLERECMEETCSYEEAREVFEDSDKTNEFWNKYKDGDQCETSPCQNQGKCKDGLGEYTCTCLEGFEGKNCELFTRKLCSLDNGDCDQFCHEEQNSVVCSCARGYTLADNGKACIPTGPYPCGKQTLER

Row | Structure (SMILES) | Ki (human alpha-thrombin) [nM] | Ki (plasma kallikrein) [nM] | Ki [1] [nM] | Ki [2] [nM] | Ki (human Factor Xa) [nM] | Ki (human urinary kallikrein) [nM] | Ki [3] [nM] | Ki (human Factor XIa) [nM] | Ki (plasmin) [nM] | Ki (human alpha-FXIIa) [nM] | Ki (human t-PA) [nM]
1 | N=C(N)c1ccc(CNC(=O)[C@H](CCC2CCNCC2)NC(=O)[C@@H](CCC2CCNCC2)NS(=O)(=O)Cc2ccccc2)cc1 | 4200 | 7.5 | 60 | > 100000 | 90 | > 100000 | > 25000 | 1400 | 3 | – | –
2 | N=C(N)c1ccc(CNC(=O)[C@H](CCC2CCNCC2)NC(=O)[C@@H](CCCc2cc[n+]([O-])cc2)NS(=O)(=O)Cc2ccccc2)cc1 [drawing 123] | 4900 | 4 | 850 | > 30000 | 400 | > 200000 | 9500 | 1400 | 1 | 870 | 2400
3 | COCC(=O)N1CCC(CC[C@@H](NS(=O)(=O)Cc2ccccc2)C(=O)N[C@@H](CCC2CCNCC2)C(=O)NCc2ccc(C(=N)N)cc2)CC1 | 4500 | 1.3 | 1200 | > 50000 | 1600 | > 100000 | 20000 | 1400 | 1.2 | 680 | 4700
4 | N=C(N)c1ccc(CNC(=O)[C@H](CCC2CCNCC2)NC(=O)[C@@H](CCc2cc[n+]([O-])cc2)NS(=O)(=O)Cc2ccccc2)cc1 | 9000 | 20 | 250 | > 50000 | 120 | > 100000 | 4200 | 2500 | 5 | – | –
5 | N=C(N)c1ccc(CNC(=O)[C@H](CCC2CCNCC2)NC(=O)[C@@H](CCCc2ccccc2)NS(=O)(=O)Cc2cccc(C(=O)O)c2)cc1 | 4400 | 3 | 310 | > 20000 | 2400 | > 20000 | 1200 | 70 | 3.8 | – | –
6 | N=C(N)c1ccc(CNC(=O)[C@H](CCC2CCNCC2)NC(=O)[C@@H](CCCn2cnnn2)NS(=O)(=O)Cc2ccccc2)cc1 | 4700 | 5.3 | 1300 | – | 2400 | > 200000 | > 10000 | 1400 | 8 | – | –

The next compounds have a lower Ki (human alpha-thrombin) than those just listed; values first:

Row | Ki (human alpha-thrombin) [nM] | Ki (plasma kallikrein) [nM] | Ki [1] [nM] | Ki [2] [nM] | Ki (human Factor Xa) [nM] | Ki (human urinary kallikrein) [nM] | Ki [3] [nM] | Ki (human Factor XIa) [nM] | Ki (plasmin) [nM] | Ki (human alpha-FXIIa) [nM] | Ki (human t-PA) [nM] | Structure (SMILES)
7 | 800 | 7.5 | 400 | > 50000 | 300 | > 50000 | 8000 | 800 | 2 | – | – | N=C(N)c1ccc(CNC(=O)[C@H](CCC2CCNCC2)NC(=O)[C@@H](CCCC2CCNCC2)NS(=O)(=O)Cc2ccccc2)cc1
8 | 1700 | 20 | 210 | – | 1600 | – | – | 1000 | 2.2 | – | – | N=C(N)c1ccc(CNC(=O)[C@H](CCC2CCNCC2)NC(=O)[C@H](NS(=O)(=O)Cc2ccccc2)c2ccccc2)cc1
9 | 3900 | 9 | 27 | > 20000 | 20 | > 200000 | 2000 | 500 | 1.5 | – | – | N=C(N)c1ccc(CNC(=O)[C@H](CCC2CCNCC2)NC(=O)[C@@H](CCc2ccncc2)NS(=O)(=O)Cc2ccccc2)cc1
10 | 3600 | 1.5 | 800 | > 100000 | 400 | > 100000 | 6500 | 600 | 1 | 400 | – | COC(=O)N1CCC(CCC[C@@H](NS(=O)(=O)Cc2ccccc2)C(=O)N[C@@H](CCC2CCNCC2)C(=O)NCc2ccc(C(=N)N)cc2)CC1
11 | 240 | 1.5 | 555 | – | 1100 | > 50000 | > 5000 | 135 | 0.25 | 3000 | 1700 | N=C(N)c1ccc(CNC(=O)[C@H](CCC2CCNCC2)NC(=O)[C@@H](CCCc2ccccc2)NS(=O)(=O)Cc2ccccc2)cc1

From patent publication US8598206B2, “Trypsin-like serine protease inhibitors, and their preparation and use” (The Medicines Company (Leipzig) GmbH, priority 2010, dated 2013)
